Experiments:
[1] = target: Translocator protein (Homo sapiens, UniProt P30536); experiment: Binding affinity to TSPO (unknown origin)
[2] = target: Sigma intracellular receptor 2 (Homo sapiens, UniProt Q5BJF2); experiment: Binding affinity to sigma 2 receptor (unknown origin)
[3] = target: Beta-3 adrenergic receptor (Homo sapiens, UniProt P13945); experiment: Binding affinity to beta3 adrenergic receptor (unknown origin)
[4] = target: 5-hydroxytryptamine receptor 7 (Homo sapiens, UniProt P34969); experiment: Binding affinity to 5HT-7A receptor (unknown origin)
Sequence of 5-hydroxytryptamine receptor 7 (P34969 whole entry): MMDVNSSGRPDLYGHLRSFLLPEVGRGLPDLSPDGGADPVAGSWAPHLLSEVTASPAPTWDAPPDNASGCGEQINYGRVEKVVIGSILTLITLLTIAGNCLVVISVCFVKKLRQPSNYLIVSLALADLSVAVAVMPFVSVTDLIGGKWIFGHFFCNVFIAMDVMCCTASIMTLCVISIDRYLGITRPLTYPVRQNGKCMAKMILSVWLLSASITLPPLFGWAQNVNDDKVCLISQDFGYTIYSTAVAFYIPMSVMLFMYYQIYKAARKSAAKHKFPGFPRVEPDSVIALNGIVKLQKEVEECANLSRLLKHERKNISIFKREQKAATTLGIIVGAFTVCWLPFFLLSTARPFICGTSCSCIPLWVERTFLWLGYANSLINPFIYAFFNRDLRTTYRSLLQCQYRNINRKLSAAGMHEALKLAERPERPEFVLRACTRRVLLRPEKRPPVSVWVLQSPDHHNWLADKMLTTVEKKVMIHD

Sequence of Beta-3 adrenergic receptor (P13945 whole entry): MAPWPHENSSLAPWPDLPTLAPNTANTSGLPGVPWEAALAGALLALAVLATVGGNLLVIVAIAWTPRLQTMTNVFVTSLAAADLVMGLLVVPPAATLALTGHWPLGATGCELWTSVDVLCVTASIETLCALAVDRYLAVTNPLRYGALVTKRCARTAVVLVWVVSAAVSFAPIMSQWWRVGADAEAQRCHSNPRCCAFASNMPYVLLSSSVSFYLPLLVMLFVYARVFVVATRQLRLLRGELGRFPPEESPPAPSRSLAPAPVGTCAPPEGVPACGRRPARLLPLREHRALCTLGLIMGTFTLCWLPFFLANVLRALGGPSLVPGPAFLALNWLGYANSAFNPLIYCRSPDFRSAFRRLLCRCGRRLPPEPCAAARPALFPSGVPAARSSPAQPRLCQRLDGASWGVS
Sequence of Sigma intracellular receptor 2 (Q5BJF2 whole entry): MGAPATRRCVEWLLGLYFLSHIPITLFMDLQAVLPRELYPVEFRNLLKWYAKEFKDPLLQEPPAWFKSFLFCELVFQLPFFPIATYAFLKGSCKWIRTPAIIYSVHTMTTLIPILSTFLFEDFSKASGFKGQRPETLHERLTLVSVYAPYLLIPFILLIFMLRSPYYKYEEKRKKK
Sequence of Translocator protein (P30536 whole entry): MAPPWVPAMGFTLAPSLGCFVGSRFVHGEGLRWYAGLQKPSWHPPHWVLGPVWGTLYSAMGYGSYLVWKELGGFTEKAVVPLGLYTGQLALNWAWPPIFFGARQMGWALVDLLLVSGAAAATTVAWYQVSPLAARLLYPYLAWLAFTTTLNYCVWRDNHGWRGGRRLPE

## CC(C)(C)Cc1c(C#Cc2ccccc2F)sc(N)c1C(=O)c1ccc(Cl)cc1
[1]
  Ki: 560 nM
[2]
  Ki: 1400 nM
[3]
  Ki: 3500 nM
[4]
  Ki: 5700 nM

— ChEMBL document CHEMBL5390318, “2-Amino-5-arylethynyl-thiophen-3-yl-(phenyl)methanones as A1 Adenosine Receptor Positive Allosteric Modulators” (ACS Med Chem Lett, 2023)
